The target in assay [1] is T1, TbPTR1 (Trypanosoma brucei brucei, UniProt O76290).
T1 construct: His6 (N); made in house; host or cells: E. coli BL21 (DE3), vector pET 15b::TbPTR1His (strain from the group of M. Paola Costi, Modena)
T1 sequence (O76290 1-268): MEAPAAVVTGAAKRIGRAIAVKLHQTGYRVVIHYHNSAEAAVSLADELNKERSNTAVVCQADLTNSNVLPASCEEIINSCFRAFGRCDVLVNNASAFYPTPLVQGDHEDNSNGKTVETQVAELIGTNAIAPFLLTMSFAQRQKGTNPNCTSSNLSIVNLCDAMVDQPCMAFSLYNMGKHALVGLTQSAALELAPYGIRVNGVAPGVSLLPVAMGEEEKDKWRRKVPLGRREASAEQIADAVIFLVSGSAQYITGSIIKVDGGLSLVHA
Description: Spectrophotometric enzyme inhibition assay, recombinant TbPTR1. The class given is biochemical. The conditions noted are these: read-out: IC50 TbPTR1. As to the method: (§1) Based on the in vitro assays against TbPTR1 and LmPTR1 performed in the previous works of our group, as well as the in silico results obtained from the current study, a total of 47 natural products were tested against the target enzymes. […] The concentration-effect curves for the IC50 and EC50 values that were obtained in the present study are depicted in Supplementary Materials Figures S21–S42.
(§2) The used TbPTR1 concentration was 3.23 mg/mL, with a specific activity of 0.03 U/mg. The measurements were carried out using the enzyme’s individual saturating concentrations for folic acid (8 μM) and NADPH (150 μM) in Buffer A (50 mM Tris/HCl (pH 7.6), 250 mM NaCl). For LmPTR1, the protein concentration was 5.02 mg/mL and the specific activity was calculated to be 0.29 U/mg. Buffer B (50 mM NaH2PO4 (pH 6.0), 100 mM NaCl) was used for all LmPTR1 measurements and the saturating concentrations amounted to 50 μM of folic acid and 200 μM of NADPH. The saturating conditions of the PTR1 enzymes were determined using the diagrams depicted in Figures S16 and S18 in the Supplementary Materials.
(§3) The inhibitory effect of the selected natural products was investigated by testing the DMSO solution of each compound at a constant concentration of 100 μM for TbPTR1 and 50 μM for LmPTR1, TbDHFR, and LmDHFR, as well as hDHFR. The concentrations of the cofactor and substrates were set at the previously determined saturating conditions (Section 4.2.5). Each test compound was incubated for 20 min with the respective enzyme and NADPH to ensure a sufficient interaction time before the reaction was induced by the addition of the substrate. The enzymatic activity was determined in duplicates and correlated with a reference that contained just DMSO, instead of an inhibitor. The enzymatic activity of the reference was normalized to 100%.
(§4) The half-maximal inhibitory concentration (IC50) of the natural products was determined in triplicate, using at least five different inhibitor concentrations against a reference containing no inhibitor. The enzymatic activity was documented and analyzed and the IC50 value was determined by nonlinear regression using GraphPad Prism 9 (GraphPad Software Inc., La Jolla, CA, USA).

The target of a further assay is T2, TbDHFR (Trypanosoma brucei brucei, UniProt Q27783).
T2 construct: pET 11D::TbDHFRHis vector design for the recombinant overexpression of TbDHFR in E. coli; His; made in house; host or cells: E. coli BL21(DE3), vector pET 11D::TbDHFRHis
T2 sequence (Q27783 28-238 limits assumed): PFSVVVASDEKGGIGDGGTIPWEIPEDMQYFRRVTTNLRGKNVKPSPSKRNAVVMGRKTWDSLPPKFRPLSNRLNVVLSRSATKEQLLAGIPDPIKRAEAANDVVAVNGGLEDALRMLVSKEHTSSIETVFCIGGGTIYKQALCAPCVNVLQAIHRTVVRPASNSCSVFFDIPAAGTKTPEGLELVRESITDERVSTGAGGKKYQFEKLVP
The experiment in a line: Spectrophotometric enzyme inhibition assay, recombinant TbDHFR. It is filed as biochemical. As to the method:
Based on the in vitro assays against TbPTR1 and LmPTR1 performed in the previous works of our group, as well as the in silico results obtained from the current study, a total of 47 natural products were tested against the target enzymes.
The saturating conditions for TbDHFR and LmDHFR were determined using the diagrams depicted in Figures S17 and S19 in the Supplementary Materials.
as §3, §4

A further assay has as its target T3, LmDHFR (Leishmania major, UniProt P07382).
T3 construct: The DNA fragment encoding LmDHFR was amplified by Phusion DNA polymerase; His6 (N); made in house; host or cells: E. coli BL21(DE3), vector pET 11D::LmDHFRHis
T3 sequence (P07382 26-229 limits assumed): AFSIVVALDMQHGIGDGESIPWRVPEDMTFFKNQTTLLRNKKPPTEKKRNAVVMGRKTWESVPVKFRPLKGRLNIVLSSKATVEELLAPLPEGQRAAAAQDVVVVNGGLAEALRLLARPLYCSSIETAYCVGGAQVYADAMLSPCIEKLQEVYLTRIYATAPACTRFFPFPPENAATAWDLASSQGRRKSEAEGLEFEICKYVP
Description: Spectrophotometric enzyme inhibition assay, recombinant LmDHFR. It is filed as biochemical. The protocol:
as §1
The TbDHFR concentration was measured to be 0.04 mg/mL and a specific activity of 38.1 U/mg was calculated. The concentration of LmDHFR was 0.05 mg/mL with a specific activity of 56.2 U/mg. All measurements were carried out using the saturating concentrations for dihydrofolate (50 μM) and NADPH (150 μM) in Buffer C (50 mM Tris/HCl (pH 7.6), 250 mM NaCl, 10 mM BME). The saturating conditions for TbDHFR and LmDHFR were determined using the diagrams depicted in Figures S17 and S19 in the Supplementary Materials.
as §3, §4

For a further assay, the target named is T4, hDHFR (Homo sapiens, UniProt P00374).
T4 construct: His; host or cells: E. coli BL21 (DE3), vector pET 15b::hDHFRHis
T4 sequence (P00374 1-187): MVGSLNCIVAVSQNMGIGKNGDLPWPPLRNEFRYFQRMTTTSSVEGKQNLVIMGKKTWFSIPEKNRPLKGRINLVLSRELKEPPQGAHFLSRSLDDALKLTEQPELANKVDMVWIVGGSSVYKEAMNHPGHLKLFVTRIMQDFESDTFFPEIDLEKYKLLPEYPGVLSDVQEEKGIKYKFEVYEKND
The experiment in a line: Spectrophotometric enzyme inhibition assay, recombinant hDHFR (selectivity). It is filed as biochemical. The note with it: for inhibition at 50 µM: set compound concentration of 50 μM, read-out: relative inhibition of hDHFR. The protocol:
For 15 compounds, there was enough substance available to be tested in selectivity studies against hDHFR.
The used hDHFR concentration was 0.64 mg/mL, with a specific activity of 0.62 U/mg. All measurements were carried out using the saturating concentrations for dihydrofolate (100 μM) and NADPH (50 μM) in Buffer C (50 mM Tris/HCl (pH 7.6), 250 mM NaCl, 10 mM BME). The saturating conditions for hDHFR were determined using the diagrams depicted in Figure S20 in the Supplementary Materials.
as §3, §4

Assay [2] deals with T. brucei. Details: method as in PMID 27077842. The conditions noted are these: read-out: IC50 antitrypanosomal activity in T. brucei cell assays; cited from earlier work.
A further assay deals with T5, LmPTR1 (Leishmania major, UniProt Q01782).
T5 construct: His6 (N); made in house; host or cells: E. coli BL21 (DE3), vector pET 15b::LmPTR1His (strain from the group of M. Paola Costi, Modena)
T5 sequence (Q01782 1-288): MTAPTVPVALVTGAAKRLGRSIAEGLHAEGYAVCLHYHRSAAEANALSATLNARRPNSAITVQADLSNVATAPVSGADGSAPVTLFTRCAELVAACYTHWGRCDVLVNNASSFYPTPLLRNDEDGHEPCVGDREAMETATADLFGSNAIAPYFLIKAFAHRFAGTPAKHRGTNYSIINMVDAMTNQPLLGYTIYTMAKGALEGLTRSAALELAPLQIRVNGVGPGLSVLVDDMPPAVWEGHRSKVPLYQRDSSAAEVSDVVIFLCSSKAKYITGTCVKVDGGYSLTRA
Description: Spectrophotometric enzyme inhibition assay, recombinant LmPTR1. The note with it: read-out: IC50 LmPTR1. It is filed as biochemical. As to the method:
as §1, §2, §3, §4

The target of assay [3] is T1, TbPTR1. The experiment in a line: Dilution assay for reversible/irreversible inhibition of TbPTR1. The class given is biochemical. The note with it: inhibitor concentration near IC50. From the text: The catalytic center of TbPTR1 contains a cysteine residue (TbCys168) in close proximity to the substrate/inhibitor binding site. In our previous publication, we mentioned the possibility that Sesquiterpene Lactones 1 and 2 might interact as Michael acceptors with TbCys168 by covalent bond formation with its thiol group. Therefore, we have now subjected a selection of natural product inhibitors containing Michael acceptors (1, 2, 5, 17) to initial testing for irreversible inhibition, according to the dilution method described by Bisswanger (see Section 4.2.9).
In this method, the enzyme activity of the respective enzyme-inhibitor mixture is measured before and after a defined dilution (in this study, 1:2). In the absence of an inhibitor, dilution decreases the enzyme activity proportionally to the dilution factor. […] A reversible inhibitor, on the other hand, will dissociate upon dilution, resulting in a weaker decrease in activity than what corresponds to the dilution effect. In the presence of Inhibitors 1 and 2, the decrease in TbPTR1 activity upon the 1:2 dilution was almost proportional to the dilution factor, i.e., only 9.5% and 6.8% activity, respectively, were recovered compared to the reference. This would indeed support an irreversible mechanism of inhibition. […] However, further investigations on these compounds’ mechanisms of inhibition are under way.
To assign an either reversible or irreversible inhibition mechanism to selected compounds, the enzymatic activity of an enzyme-inhibitor mixture was determined before and after a defined dilution, using the reaction conditions described in Section 4.2.5 [16].
Two equivalent solutions with the respective enzyme and inhibitor combination were prepared, one of them being diluted with buffer in a 1:2 ratio shortly before the reaction was started by adding the substrate. The respective inhibitor concentration was set near the IC50 value. The substrate and cofactor concentrations were kept constant in both reaction mixtures. All measurements were carried out in duplicates against a reference containing DMSO instead of the inhibitor. […] If a reversible inhibitor was present, a higher degree of activity recovery (>>10%) could be observed than what corresponds to the dilution factor due to the partial dissociation of the inhibitor from the enzyme upon dilution. The percentual changes in the enzymatic activity of the undiluted and diluted test solution were compared and evaluated to decide the mechanism of inhibition.

In assay [4] the test system is T. brucei. The note with it: read-out: EC50 in vitro against T. brucei; cited from earlier work.
Another assay has as its system L. major. The note with it: read-out: EC50 against L. major; cited from earlier work.

Read-outs that look alike come from different tables or passages of the source. Where only a bound is given, the exact number is not on record here.

Take `O=C(/C=C/c1ccc(O)c(O)c1/C=C/c1ccc(O)c(O)c1)O[C@H](Cc1ccc(O)c(O)c1)C(=O)O` [Compound 8, salvianolic acid A]: the IC50 (as a rule, the concentration needed to halve the response being measured) on TbPTR1 [1] was 85.1 µM; on TbDHFR, 2.5 µM; on hDHFR it was greater than 50 µM; with T. brucei [2], 3.1 µM. In addition, the EC50 (commonly the concentration that produces a half-maximal response) on LmDHFR was determined as 18.7 µM.
For `C=C(C)[C@H](CC=C(C)C)Cc1c(O)cc(O)c2c1O[C@H](c1ccc(O)cc1O)CC2=O` [Compound 9, sophoraflavanone G], the 50% inhibitory concentration (IC50) on TbPTR1 [1] was 31.8 µM; at TbDHFR (read-out: IC50 TbDHFR), 9.4 µM; on LmDHFR (read-out: IC50 LmDHFR), 14 µM; in the assay with T. brucei [2], 1.4 µM. In addition, the EC50 at hDHFR (read-out: EC50 hDHFR (footnote a)) is 31.6 µM. The inhibition (usually the percentage by which the read-out fell short of the control) at 50 µM on hDHFR is greater than 50%.
For the compound `O=C(/C=C/CCc1ccc(O)c(O)c1)CCc1ccc(O)c(O)c1` [Compound 17, dehydrohirsutanone], the IC50 was 8.3 µM at TbPTR1 [1], 17.7 µM on TbDHFR (read-out: IC50 TbDHFR), greater than 50 µM at LmPTR1 and 40.7 µM on hDHFR. The inhibition at 50 µM at hDHFR was greater than 50%. The “TbPTR1 activity recovered upon 1:2 dilution compared to the reference” value at TbPTR1 [3] is given as 12.8%. Further, the half-maximal effective concentration (EC50) was 2.5 µM in the assay on T. brucei [4] and greater than 100 µM in the assay on L. major.

The values above are taken from paper PMC10673058, “In Silico and In Vitro Search for Dual Inhibitors of the Trypanosoma brucei and Leishmania major Pteridine Reductase 1 and Dihydrofolate Reductase” (Molecules, 2023).
